# Measured values reported in paper PMC11345330, “Structural, Biochemical, and Phylogenetic Analysis of Bacterial and Fungal Carbohydrate Esterase Family 15 Glucuronoyl Esterases in the Rumen” (The Protein Journal, 2024).
# Target: T1, FsCE15 (Fibrobacter succinogenes, UniProt C9RKY6)
# T1 construct: gene FSU_2898; codon-optimised synthetic gene, His6 tag (C-terminal for crystals)
# Assay: continuous coupled uronic acid assay (Megazyme K-Uronic)
# Type: biochemical
# Details: pH 7.0, 3-component buffer, 2 mM substrate
# T1 sequence (C9RKY6 entry or part of it): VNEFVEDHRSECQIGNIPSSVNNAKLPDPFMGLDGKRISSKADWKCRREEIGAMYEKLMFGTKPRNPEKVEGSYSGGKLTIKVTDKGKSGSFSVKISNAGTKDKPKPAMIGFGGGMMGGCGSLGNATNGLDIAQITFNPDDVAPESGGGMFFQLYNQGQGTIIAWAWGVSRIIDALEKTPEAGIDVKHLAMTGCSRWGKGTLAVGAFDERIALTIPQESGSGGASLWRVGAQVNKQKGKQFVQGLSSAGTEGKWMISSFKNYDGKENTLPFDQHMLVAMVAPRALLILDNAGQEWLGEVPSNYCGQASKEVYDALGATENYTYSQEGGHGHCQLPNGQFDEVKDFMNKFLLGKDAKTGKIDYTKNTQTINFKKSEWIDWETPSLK
smiles,measurement,value
C=CCOC(=O)[C@H]1OC(O)[C@H](O)[C@@H](O)[C@@H]1O (stereo partly drawn) [Allyl D-glucuronate],continuous coupled uronic acid assay (Megazyme K-Uronic),All of the enzymes cleaved AllylGlcA
